Where two headings read alike, the source gives them in different places.
Key:
lactoperoxidase (LPO) [1] = system: lactoperoxidase (LPO); set-up: method as in PMID 16248663; conditions: cited from earlier work
lactoperoxidase (LPO) [2] = target: lactoperoxidase (LPO); set-up: method as in PMID 16855736; conditions: cited from earlier work
[3] = set-up: method as in earlier work; conditions: cited from earlier work
[4] = Glutathione peroxidase (GPx)-like reduction of H2O2 in the presence of thiols (GSH); type: biochemical; conditions: catalytic reduction of H2O2 with thiols such as GSH
From the text: Doerge and others have shown that mammalian peroxidases including LPO may activate the antithyroid drugs through S-oxygenation to produce the corresponding sulfoxides or sulfinic acids. They have also shown that the suicide inactivation of LPO and TPO by MMI proceeds through the S-oxygenation of the thione moiety to form a reactive sulfinic acid, which binds covalently to the prosthetic heme and irreversibly blocks enzyme activity. Given the higher reactivity of selenium compounds as compared with the sulfur derivatives toward oxidation, it is possible that the facile oxidation of the selenium compounds may lead to an efficient inhibition of LPO activity. […] The LPO activity was measured several times by increasing the time for the reaction of the test compounds with H2O2. Remarkably, MSeI (2) inhibited the enzyme within few seconds even at lower concentrations, which can be ascribed to the facile oxidation of the reactive selenolate group in 2 (MSeI) by H2O2 or by the oxidized enzyme. […] The initial rates (v0) derived from various concentrations of H2O2 were plotted against the concentration of H2O2. […] The reduction of H2O2 by 2 may become more efficient in the presence of suitable thiols such as GSH because this process may constitute a redox cycle involving a catalytic reduction of H2O2 (glutathione peroxidase (GPx) activity). […]

[5] = set-up: method as in PMID 14995183, PMID 16248663; conditions: oxidizes in air to the corresponding diselenide; cited from earlier work

## Cn1cc[nH]c1=S [MMI, methimazole]
Lactoperoxidase (LPO) [1]; 10 μM compound, 230 μM H2O2
  Recovery of LPO activity at lower compound and higher H2O2 concentration: could not be recovered
Lactoperoxidase (LPO) [1]; 40 μM compound, ABTS oxidation, Figure 3
  LPO activity in the presence of compound: completely inhibited
Lactoperoxidase (LPO) [1]; 40 μM compound, initial rates vs H2O2 concentration, LPO 6.5 nM, Figure 3
  Recovery of LPO activity by increasing H2O2 concentration: could not be recovered
Lactoperoxidase (LPO) [1]; LPO-catalyzed oxidation of ABTS with H2O2, concentration causing 50% inhibition, at least three independent experiments
  IC50: 7 ± 1.1 µM
Lactoperoxidase (LPO) [2]; HPLC assay, KI, L-tyrosine, H2O2, LPO, fixed H2O2 concentration, read-out: IC50, inhibition of LPO-catalyzed iodination of L-tyrosine
  IC50: 5.2 µM
[3]
  hydrogen-bond (hard) basicity pk HB value: 2.11

## Cn1cc[nH]c1=[Se] [MSeI]
[4]
  GPx activity (in words): high
[5]
  Stability of the zwitterionic form in air: unstable

## CCCc1cc(=O)[nH]c(=S)[nH]1 [PTU, 6-n-propyl-2-thiouracil]
[3]
  hydrogen-bond (hard) basicity pk HB value: ~1.32

## Cn1ccnc1[Se][Se]c1nccn1C [compound 8]
Lactoperoxidase (LPO) [1]; identical experimental conditions as for the IC50 determination
  Inhibition of LPO-catalyzed oxidation (in words): does not show any noticeable inhibition
Lactoperoxidase (LPO) [2]; identical conditions as the IC50 determination
  Inhibition of LPO-catalyzed iodination (in words): did not show any noticeable inhibition
